# From US20250304549A1, “HYDROXYAMIDE DERIVATIVE AND USE THEREOF” (SICHUAN HUIYU PHARMACEUTICAL CO., LTD., priority 2022, published 2025)
# Counter-ions that a name gives are not always drawn.
# What was measured:
# NCI-H69 cells = assay: In vitro cell inhibition assay - NCI-H69 cell proliferation (CellTiter-Glo); type: cell-based; conditions: Homo sapiens, NCI-H69, H69 small cell lung cancer cell proliferation
# Protocol: 4. In Vitro Cell Inhibition Assay—NCI-H69 Cell Proliferation
# The inhibitory effect of the compounds on cell proliferation was assessed by detecting the number of viable cells using the CellTiter-Glo® reagent. NCI-H69 cells in the logarithmic growth phase were collected and inoculated into transparent bottom 96-well plates at a density 1×10^3 cells per well with 100 μL medium, and incubated at 37° C., 5% CO2 overnight. The compounds were sequentially diluted in a 5-fold concentration gradient with DMSO to obtain 8 different concentrations These were then diluted with RPMI-640 (containing 20% FBS) cell culture medium to obtain the compounds working solution (2×), which was added to the cell supernatant at 100 μL per well. The incubation continued for 7 days at 37° C., 5% CO2. The plate was then removed and equilibrated to room temperature (25° C.) along with the CellTiter-Glo® mixing reagent for 10-30 minutes. After centrifugation at 1200 rpm for 5 minutes, 120 μL of the culture medium was carefully aspirated from each well, and 60 μL of CellTiter-Glo® reagent was added. The cells were thoroughly mixed with the CellTiter-Glo® mixing reagent using a microplate shaker for 2 min. and then incubated at room temperature for 10 min. The 96-well plate was subsequently placed on a multifunctional microplate reader to record the Luminescence values (RLU).
# The inhibition rate was calculated using the following formula: […]
# (§1) Note: ‘Negative’ refers to the group without inhibitors; ‘Blank’ refers to the group without cells.
# (§2) The IC50 value was determined by fitting the inhibition rate by GraphPad Prism software.
# NCI-H1417 cells = assay: In vitro cell inhibition assay - H1417 cell proliferation (CellTiter-Glo); type: cell-based; conditions: Homo sapiens, NCI-H1417, H1417 small cell lung cancer cell proliferation
# Protocol: 3. In Vitro Cell Inhibition Assay—H1417 Cell Proliferation
# The inhibitory effect of the compounds on cell proliferation was assessed by detecting the number of viable cells using the CellTiter-Glo® reagent. […] The compounds were sequentially diluted in a 5-fold concentration gradient with DMSO to obtain 8 different concentrations o. These were diluted with BEGM (containing 10% FBS) cell culture medium to obtain the compound working solution (2×), which was added to the cell supernatant at 100 μL per well. The incubation continued for 7 days at 37° C., 5% CO2. The plate was then removed and equilibrated to room temperature (25° C.) along with the CellTiter-Glo® mixing reagent for 10-30 minutes. After centrifugation, 100 μL of the culture medium was carefully aspirated from each well, and 85 μL of CellTiter-Glo® reagent was added. The cells were thoroughly mixed with the CellTiter-Glo® mixing reagent using a microplate shaker for 2 min. and then incubated at room temperature for 10 min. The 96-well plate was subsequently placed on a multifunctional microplate reader to record the Luminescence values (RLU). • The inhibition rate was calculated using the following formula: […]
# as §1, §2
# LSD1 = LSD1 (Homo sapiens (Human), UniProt O60341); assay: In vitro enzyme inhibition assay - LSD1 (HTRF); type: biochemical
# Protocol: 1. In Vitro Enzyme Inhibition Assay—LSD1
# Initially, a master solution of 90 μM test compound (dissolved in DMSO) was prepared and sequentially diluted with DMSO in a 5-fold concentration gradient to yield a total of 9 concentrations of the compound working solution 1 (90×). Subsequently these 9 concentrations of working solution 1 were sequentially diluted by a 30-fold concentration gradient, i.e., 2 μL of working solution 1 was aspirated and added to 58 μL of Buffer, mixed on a vortex mixer with sufficient shaking to yield 9 concentrations of the screening test compound working solution 2 (3×). […] The mixture was incubated at room temperature for 15 minutes. […] Afterward, 2 μL of a termination solution (containing 5.4 mM 2-PCPA) was added to each well, mixed evenly, and incubated for another 15 minutes. Finally 4 μL of a pre-mixed antibody solution of Eu-anti H3K4 (PerkinElmer, TRF0404-D) and allophycocyanin (Prozyme, PJ27S) (1:1) was added to each well, mixed evenly, and incubated for 60 minutes. […] The inhibition rate was calculated through the following formula: […]
# (§3) Note: ‘Negative’ refers to the group without the inhibitor; ‘Blank’ refers to the group without the enzyme.
# (§4) The IC50 value was calculated by fitting the inhibition rate by GraphPad Prism software, employing log (inhibitor) vs. response-Variable Slope (four parameters) model.
# pan-HDAC = assay: In vitro enzyme inhibition assay - HDAC (HDAC-Glo I/II), pan-HDAC; type: biochemical
# Protocol: 2. In Vitro Enzyme Inhibition Assay—HDAC
# The effect of the compound on the enzymatic activity of pan-HDAC and two isoforms (HDAC1 and HDAC8) was examined using the HDAC-Glo I/II Assay and Screening System assay to assess the level of inhibition of HDAC protease activity and selectivity in each isoform. The proteins and detection reagents were from the HDAC-Glo™ I/II Assay and Screening System (Promega). A 1 mM stock solution of the compound was prepared in DMSO and diluted in a 5-fold gradient to create a series of 8 concentrations, and a specific volume of the highest concentration was diluted 25 times with HDAC Buffer to obtain 4× working solution of the compound. […] The 384-well plate was then read on a multifunctional microplate reader, with the Luminescence channel selected to record Luminescence values (RLU). The inhibition rate was calculated using the following formula: […]
# as §3, §4
Structure (SMILES),IC50 (NCI-H69 cells) [nM],IC50 (NCI-H1417 cells) [nM],IC50 (LSD1) [nM],IC50 (pan-HDAC) [nM]
"COc1ccc(-c2cnc(N3CCC(NCc4ccc(/C=C/C(=O)NO)cc4)CC3)c(C)c2-c2ccc(C#N)nc2)cc1O [Example 254, (E)-3-(4-(((1-(6-Cyano-5′-(3-hydroxy-4-methoxyphenyl)-3′-methyl-[3,4′-bipyridin]-2′-yl)piperidin-4-yl)amino)methyl)phenyl)-N-hydroxyacrylamide formate]",4.69,5.77,35.4,0.41
"CC(NC1CCN(c2ncc(-c3ccc(OCC(C)(C)O)c(O)c3)c(-c3ccc(C#N)c(F)c3)c2C#N)CC1)c1ccc(/C=C/C(=O)NO)cc1 (stereo not shown) [Example 235, (E)-3-(4-(1-((1-(3-Cyano-4-(4-cyano-3-fluorophenyl)-5-(3-hydroxy-4-(2-hydroxy-2-methylpropoxy)phenyl)pyridin-2-yl)piperidin-4-yl)amino)ethyl)phenyl)-N-hydroxyacrylamide formate]",19.2,2.35,2.38,8.01
"COc1ccc(-c2c(OCCCCCCC(=O)NO)cc(N3CC4CC3CC4N)nc2-c2ccc(C#N)c(F)c2)cc1O (stereo not shown) [Example 15, 7-((6-(5-Amino-2-azabicyclo[2.2.1]heptan-2-yl)-2-(4-cyano-3-fluorophenyl)-3-(3-hydroxy-4-methoxyphenyl)pyridin-4-yl)oxy)-N-hydroxyheptanamide hydrochloride]",2990,221,1.45,27.5
"COc1ccc(-c2cnc(N3CCC(NCc4ncc(/C=C/C(=O)NO)cc4F)CC3)c(C#N)c2-c2ccc(C#N)c(F)c2)cc1O [Example 230, (E)-3-(6-(((1-(3-Cyano-4-(4-cyano-3-fluorophenyl)-5-(3-hydroxy-4-methoxyphenyl)pyridin-2-yl)piperidin-4-yl)amino)methyl)-5-fluoropyridin-3-yl)-N-hydroxyacrylamide formate]",77,4.67,1.45,10.3
"CC(C)(O)COc1ccc(-c2cnc(N3CCC(C)(NCc4ccc(/C=C/C(=O)NO)cc4)CC3)c(C#N)c2-c2ccc(C#N)c(F)c2)cc1O [Example 215, (E)-3-(4-(((1-(3-Cyano-4-(4-cyano-3-fluorophenyl)-5-(3-hydroxy-4-(2-hydroxy-2-methylpropoxy)phenyl)pyridin-2-yl)-4-methylpiperidin-4-yl)amino)methyl)phenyl)-N-hydroxyacrylamide formate]",295,2.65,0.39,68
"COc1ccc(-c2cnc(N3CCC(NCc4ccc(/C=C/C(=O)NO)cc4)CC3)c(C#N)c2-c2cnc(C#N)nc2)cc1O [Example 250, E)-3-(4-(((1-(3-Cyano-4-(2-cyanopyrimidin-5-yl)-5-(3-hydroxy-4-methoxyphenyl)pyridin-2-yl)piperidin-4-yl)amino)methyl) phenyl)-N-hydroxyacrylamide formate]",1.93,2.42,17,1.08
"N#Cc1ccc(-c2c(-c3ccc(Cl)c(O)c3)cnc(N3CCC(NCc4ccc(/C=C/C(=O)NO)cn4)CC3)c2C#N)cc1F [Example 239, (E)-3-(6-(((1-(5-(4-Chloro-3-hydroxyphenyl)-3-cyano-4-(4-cyano-3-fluorophenyl)pyridin-2-yl)piperidin-4-yl)amino)methyl)pyridin-3-yl)-N-hydroxyacrylamide formate]",25.2,11.6,2.36,10.2
"COc1ccc(-c2cnc(N3CCC(NCc4ccc(CC(F)C(=O)NO)cc4)CC3)c(C#N)c2-c2ccc(C#N)c(F)c2)cc1O (stereo not shown) [Example 219, 3-(4-((1-(3-Cyano-4-(4-cyano-3-fluorophenyl)-5-(3-hydroxy-4-methoxyphenyl)pyridin-2-yl)piperidin-4-yl)amino)methyl) phenyl)-2-fluoro-N-hydroxypropanamide formate]",149,7.13,0.21,9.28
"CC(C)(O)Cn1nnc2cc(-c3cnc(N4CCC(NCc5ccc(/C=C/C(=O)NO)cn5)CC4)c(C#N)c3-c3ccc(C#N)c(F)c3)ccc21 [Example 224, (E)-3-(6-(((1-(3-Cyano-4-(4-cyano-3-fluorophenyl)-5-(1-(2-hydroxy-2-methylpropyl)-1H-benzo[d][1,2,3]triazol-5-yl)pyridin-2-yl)piperidin-4-yl)amino)methyl)pyridin-3-yl)-N-hydroxyacrylamide formate]",305,24.5,0.19,10.6
"COc1ccc(-c2cnc(N3CCC(NCc4ccc(/C=C(\C)C(=O)NO)nc4)CC3)c(C#N)c2-c2ccc(C#N)c(F)c2)cc1O [Example 220, (E)-3-(5-(((1-(3-Cyano-4-(4-cyano-3-fluorophenyl)-5-(3-hydroxy-4-methoxyphenyl)pyridin-2-yl)piperidin-4-yl)amino)methyl)pyridin-2-yl)-N-hydroxy-2-methylacrylamide formate]",2290,6.86,0.42,937
"COC(=O)c1ccc(-c2c(-c3ccc(OC)c(O)c3)cnc(N3CCC(NCc4ccc(/C=C/C(=O)NO)cc4)CC3)c2C#N)cn1 [Example 253, Methyl (E)-3′-cyano-5′-(3-hydroxy-4-methoxyphenyl)-2′-(4-((4-(3-(hydroxyamino)-3-oxoprop-1-en-1-yl)benzyl)amino)piperidin-1-yl)-[3,4′-bipyridine]-6-carboxylate formate]",5.25,13.2,342,0.3
"N#Cc1ccc(-c2nc(N3CC4CC3CC4N)n3ccnc3c2-c2ccc(OCCCCCCC(=O)NO)c(O)c2)cc1F (stereo not shown) [Example 22, 7-(4-(5-(5-(5-Amino-2-azabicyclo[2.2.1]heptan-2-yl)-7-(4-cyano-3-fluorophenyl)imidazo[1,2-c]pyrimidin-8-yl)-2-hydroxyphenoxy)-N-hydroxyheptanamide hydrochloride]",4730,106,0.31,144
"COc1ccc(-c2cnc(N3CCC(C)(NCc4ccc(/C=C/C(=O)NO)nc4)CC3)c(C#N)c2-c2ccc(C#N)c(F)c2)cc1O [Example 213, (E)-3-(5-(((1-(3-Cyano-4-(4-cyano-3-fluorophenyl)-5-(3-hydroxy-4-methoxyphenyl)pyridin-2-yl)-4-methylpiperidin-4-yl)amino)methyl)pyridin-2-yl)-N-hydroxyacrylamide formate]",76.1,7.32,2.12,19.7
